Laboratory results: PubChem BioAssay (NCI)
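GI50 = concentration required for 50% inhibition of growth. TGI: concentration producing complete growth inhibition.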

Legend:
Assay in all cases: NCI tumour cell line growth inhibition, 384-well format
[1] = test system: SF-539 CNS
[2] = test system: IGROV1 ovarian
[3] = test system: HCT-15 colon
[4] = test system: COLO 205 colon
[5] = test system: MDA-MB-435 melanoma
[6] = test system: SNB-19 CNS
[7] = test system: EKVX NSCLC
[8] = test system: NCI-H460 NSCLC
[9] = test system: MCF7 breast
[10] = test system: NCI-H226 lung
[11] = test system: MOLT-4 leukemia
[12] = test system: KM12 colon
[13] = test system: SN12C renal
[14] = test system: SW-620 colon
[15] = test system: HT29 colon
[16] = test system: T-47D breast
[17] = test system: CAKI-1 renal
[18] = test system: SF-295 CNS
[19] = test system: A498 renal
[20] = test system: NCI-H322M lung
[21] = test system: RPMI-8226 leukemia
[22] = test system: SK-MEL-5 melanoma
[23] = test system: NCI-H522 lung
[24] = test system: NCI-H23 lung
[25] = test system: OVCAR-4 ovarian
[26] = test system: 786-0 renal
[27] = test system: SF-268 CNS
[28] = test system: K-562 leukemia
[29] = test system: HOP-62 NSCLC
[30] = test system: UACC-257 melanoma
[31] = test system: OVCAR-5 ovarian
[32] = test system: TK-10 renal
[33] = test system: PC-3 prostate
[34] = test system: LOX IMVI melanoma
[35] = test system: UACC-62 melanoma
[36] = test system: UO-31 renal
[37] = test system: SK-OV-3 ovarian
[38] = test system: BT-549 breast
[39] = test system: A549 NSCLC
[40] = test system: MDA-MB-231 breast
[41] = test system: ACHN renal
[42] = test system: OVCAR-3 ovarian
[43] = test system: HCC-2998 colon
[44] = test system: NCI/ADR-RES ovarian
[45] = test system: HL-60(TB) leukemia
[46] = test system: SNB-75 CNS
[47] = test system: DU-145 prostate
[48] = test system: MDA-MB-468 breast
[49] = test system: SK-MEL-28 melanoma
[50] = test system: CCRF-CEM leukemia
[51] = test system: M14 melanoma
[52] = test system: MALME-3M melanoma
[53] = test system: HS 578T breast
[54] = test system: OVCAR-8 ovarian
[55] = test system: HOP-92 NSCLC
[56] = test system: RXF 393 renal

## CC1(C)CN(c2cc(C(F)(F)F)cc3cncn23)CCC12NC(=O)NC2=O (configuration not stated)
[1]
  GI50: 91.7 µM
  TGI: > 100 µM
[2]
  GI50: 27.8 µM
  TGI: 75.8 µM
[3]
  GI50: 40.6 µM
  TGI: > 100 µM
[4]
  GI50: 68.9 µM
  TGI: > 100 µM
[5]
  GI50: 62.2 µM
  TGI: > 100 µM
[6]
  GI50: 55.7 µM
  TGI: > 100 µM
[7]
  GI50: 15.1 µM
  TGI: 59.7 µM
[8]
  GI50: 38.1 µM
  TGI: > 100 µM
[9]
  GI50: 26 µM
  TGI: 99.6 µM
[10]
  GI50: 26.6 µM
  TGI: > 100 µM
[11]
  GI50: 12.3 µM
  TGI: 25.1 µM
[12]
  GI50: 36 µM
  TGI: > 100 µM
[13]
  GI50: 40.4 µM
  TGI: > 100 µM
[14]
  GI50: > 100 µM
  TGI: > 100 µM
[15]
  GI50: 46 µM
  TGI: > 100 µM
[16]
  GI50: 29.2 µM
  TGI: > 100 µM
[17]
  GI50: 30.6 µM
  TGI: > 100 µM
[18]
  GI50: 24.8 µM
  TGI: 74.8 µM
[19]
  GI50: 26 µM
  TGI: > 100 µM
[20]
  GI50: 57.8 µM
  TGI: > 100 µM
[21]
  GI50: 15.3 µM
  TGI: 45.8 µM
[22]
  GI50: 33.5 µM
  TGI: 95.7 µM
[23]
  GI50: 54 µM
  TGI: > 100 µM
[24]
  GI50: 30.7 µM
  TGI: > 100 µM
[25]
  GI50: 18.8 µM
  TGI: 82.6 µM
[26]
  GI50: 35.1 µM
  TGI: > 100 µM
[27]
  GI50: 26.9 µM
  TGI: > 100 µM
[28]
  GI50: 42.6 µM
  TGI: > 100 µM
[29]
  GI50: 28.3 µM
  TGI: > 100 µM
[30]
  GI50: 61.3 µM
  TGI: > 100 µM
[31]
  GI50: 39.4 µM
  TGI: > 100 µM
[32]
  GI50: 35.5 µM
  TGI: > 100 µM
[33]
  GI50: 26.2 µM
  TGI: 99.2 µM
[34]
  GI50: 32.5 µM
  TGI: > 100 µM
[35]
  GI50: 19.2 µM
  TGI: 63.7 µM
[36]
  GI50: 56.8 µM
  TGI: > 100 µM
[37]
  GI50: 40.9 µM
  TGI: > 100 µM
[38]
  GI50: 19.8 µM
  TGI: > 100 µM
[39]
  GI50: 35.3 µM
  TGI: > 100 µM
[40]
  GI50: 32.2 µM
  TGI: > 100 µM
[41]
  GI50: 38.2 µM
  TGI: > 100 µM
[42]
  GI50: 28.4 µM
  TGI: > 100 µM
[43]
  GI50: 29.4 µM
  TGI: 73.9 µM
[44]
  GI50: > 100 µM
  TGI: > 100 µM
[45]
  GI50: 14.5 µM
  TGI: 27.8 µM
[46]
  GI50: 42.4 µM
  TGI: > 100 µM
[47]
  GI50: 40 µM
  TGI: > 100 µM
[48]
  GI50: 12.5 µM
  TGI: 35.2 µM
[49]
  GI50: 47.8 µM
  TGI: > 100 µM
[50]
  GI50: 12 µM
  TGI: 26.7 µM
[51]
  GI50: 48.1 µM
  TGI: > 100 µM
[52]
  GI50: 28.1 µM
  TGI: 88.7 µM
[53]
  GI50: 12.9 µM
  TGI: 35.6 µM
[54]
  GI50: 33.5 µM
  TGI: > 100 µM
[55]
  GI50: 26.1 µM
  TGI: > 100 µM
[56]
  GI50: 29.4 µM
  TGI: > 100 µM
